Source: patent US20050203011A1, “Mitigating symptoms and behaviors of substance abuse by modulating GDNF or BDNF pathway activity” (The Regents of the University of California, priority 2003, published 2005)

Assays:
DBA mice = experiment: Conditioned place preference test (CPP); format: in vivo, mouse; details: ibogaine 40 mg/kg i.p. during CPP acquisition, before expression, or both
Method: The CPP apparatus (Med Associates) consisted of two visually distinctive conditioning compartments connected by a smaller center compartment. The CPP procedure consisted of three phases: preconditioning (Day 1), conditioning (Days 2-9), and post-conditioning (Day 10). On Day 1, mice were placed into the center compartment and allowed free access to both conditioning compartments for 30 minutes. […] Mice were given access to one conditioning chamber for 5 minutes immediately after injection or 3 h after injection. […] Control subjects received saline in both conditioning chambers. […] Ethanol treatment was followed by placement within one conditioning chamber, alternated with saline treatment and placement into the other conditioning chamber, as described above. On Day 10, animals were tested for CPP by allowing free access to both conditioning compartments for 30 minutes. Photocell counts provided a measure of locomotor activity as well as time spent in each compartment

GDNF = GDNF secretion into medium of SHSY5Y cells (ELISA); format: cell-based, human; details: 10 μM
Source text: GDNF secretion in the medium was detected using GDNF Emax Immunoassay System according to (Balkowiec and Katz, 2000). GDNF concentration was interpolated from the standard curves (linear range of 15.6-1000 pg/ml).

ERK1/2 = ERK1/2 phosphorylation in SHSY5Y cells; format: cell-based, human; details: 10 μM ibogaine
Method: ERK2 and pERK1/2 were detected by Western blot analysis with anti-ERK2 and pERK1/2 antibodies respectively. Line-graph depicts the mean ratio (pERK2/ERK2)±SD of 3 experiments. […] Panel C: Cells were pre-incubated with 0.3 unit/ml PI-PLC for 1 h (lane 3).

Trk = Trk phosphorylation in SHSY5Y cells; format: cell-based, human; details: 10 μM ibogaine 3 hours
Method: (§1) Expression of GDNF and control Actin were analyzed by RT-PCR (n=4). […] GDNF in the media was detected by an ELISA assay. Histogram depicts the mean±SD of GDNF secretion in 3 experiments. […] Ret was immunoprecipitated with anti-Ret antibodies followed by Western blot analysis with anti GFRα1 antibodies. The levels of GFRα1 in the homogenates were determined by Western blot analysis (n=3). […] Ret was immunoprecipitated followed by Western blot analysis with anti-phospho tyrosine or anti-Ret antibodies (n=3). […] Trk phosphorylation was analyzed by Western blot analysis with anti-phospho-Trk antibodies. The levels of TrkB were also determined by Western blot analysis (n=3). Panel F: Cells were pre-incubated with 0.3 unit/ml PI-PLC for 1 h (lanes 3 and 4). […] Ret phosphorylation was determined as described above (n=4). […] Treatment with 50 ng/ml GDNF was used as a positive control (lane 5). The cells were lysed and Ret phosphorylation was analyzed as described above (n=3).

[1] = test system: Ret association with GFRα1; experiment: Ret association with GFRα1 in SHSY5Y cells (immunoprecipitation, Western blot); format: cell-based, human; details: 3 hours
Method: as §1
(§2) Cells were collected and lysed in RIPA buffer (50 mM Tris-Cl, pH 7.6, 150 mM NaCl, 1 % NP40, 0.1% SDS, 0.5% sodium deoxycholate, 2 mM EDTA, protease inhibitor cocktail and 10 mM sodium orthovanadate). Homogenates were incubated with 5 N^og anti-Ret antibody in TBS-T buffer (20 mM Tris-Cl, pH7.6, 137 mM NaCl and 1% NP-40) overnight at 4° C., followed by 2 hours incubation with Protein G agarose. […]

Ret = Ret phosphorylation in SHSY5Y cells; format: cell-based, human; details: dose- and time-dependent
Method: as §1, §2

12-methoxyibogamine [ibogaine] was tested. Which “rewarding properties of ethanol (ethanol-induced CPP)” value (DBA mice) did it give?
The value was “not altered”.

And the “GDNF levels in the media (secretion)” value (GDNF)?
The value was “accumulated in the media in a time-dependent manner”.

And the “duration of ERK1/2 activation” value (ERK1/2)?
The value was “up to 6 hours”.

What about the “phosphorylation of ERK1/2” value (ERK1/2) of the same substance?
Its value is “induced”.

And the “phosphorylation state of Trk” value (Trk)?
Its value is “no change”.

What about the GFRα1 protein levels [1] of the same substance?
The GFRα1 protein levels was “not due to increased GFRα1 protein levels”.

What about the “Ret association with GFRα1” value [1] of the same substance?
The value was “increased”.

What about the Ret phosphorylation (Ret) of the same substance?
The Ret phosphorylation was “induced”.
